Usually ED50 stands for the midpoint of the dose-response relation. Read a high ED50 as a need for a large dose.

Structures are written as SMILES.

Format in all cases: functional
The test system of assay [1] is Rattus norvegicus. Description: Compound was evaluated for mean % LSD correct responses at a dos e of 10 mg/kg in rats using drug discrimination assay.
Assay [2] concerns Rattus norvegicus. The experiment in a line: Compound was evaluated for mean % LSD correct responses at a dos e of 15 mg/kg in rats using drug discrimination assay.
Assay [3] has as its system Rattus norvegicus. The experiment in a line: Effective dose to cause hallucinogenic activity in rats using drug discrimination assay by intraperitoneal administration. The conditions noted are these: ip.
Assay [4] deals with Rattus norvegicus. The experiment in a line: Compound was evaluated for mean % LSD correct responses at a dos e of 0.75 mg/kg in rats using drug discrimination assay.

The molecule `COc1cc(OC)c(C2CC[C@@H]2N)cc1OC` (stereo partly drawn) displayed an LSD in the assay with Rattus norvegicus [1] of 44%.
In the assay with Rattus norvegicus [2], `COc1cc(OC)c(C2CC[C@H]2N)cc1OC` (stereo partly drawn) displayed an LSD of 28%.
`COc1cc(C2CC2N)c(OC)cc1C.Cl` (stereo not drawn) had a 50% effective dose (ED50) in the assay with Rattus norvegicus [3] of 20 mg/kg.
On the same count and under the same terms, as for `CCN(CC)C(=O)[C@@H]1C=C2c3cccc4[nH]cc(c34)C[C@H]2N(C)C1` [LYSERGIDE], the figure is 0.0077 mg/kg.
Regarding `COc1cc(C2CC2N)c(OC)cc1C` (stereo not drawn), the 50% effect level in the assay with Rattus norvegicus [3] (ED50) was put at a dose of 0.163 mg/kg. The molecule further came in with an LSD in the assay on Rattus norvegicus [4] of 93%.
Molecule `COc1cc(C2CC[C@@H]2N)c(OC)cc1C` (stereo partly drawn) returned an LSD with Rattus norvegicus [1] of 53%.
For `CCN(CC)C(=O)[C@@H]1C=C2c3cccc4[nH]cc(c34)C[C@H]2N(C)C1.O=C(O)C(O)C(O)C(=O)O`, in the assay on Rattus norvegicus [3], it took a dose of 0.08 mg/kg to reach the 50% effect level (ED50).

The values are drawn from ChEMBL document CHEMBL1122748, “Synthesis and evaluation of substituted 2-phenylcyclobutylamines as analogues of hallucinogenic phenethylamines: lack of LSD-like biological activity” (1984).
